Patent publication US8507411B2, “Neoglycorandomization and digitoxin analogs” (priority 2004, dated 2013)
pIC50: −log10 of the molar value. Like-named read-outs stand apart in the source and are kept apart here.

Columns and labels:
Du145 = test: High-throughput calcein AM cytotoxicity assay, Du145; assay type: cell-based, human; details: read-out: IC50, Du145
From the text: (§1) Standard errors are depicted with error bars.

MCF7 = test: High-throughput calcein AM cytotoxicity assay, MCF7; assay type: cell-based, human; details: read-out: IC50, MCF7
From the text: as §1

A549 = test: High-throughput calcein AM cytotoxicity assay, A549; assay type: cell-based, human; details: read-out: IC50, A549
From the text: as §1

NCI-H460 = test: High-throughput calcein AM cytotoxicity assay, NCI-H460; assay type: cell-based, human; details: read-out: IC50, NCI-H460
From the text: as §1

HCT-116 = test: High-throughput calcein AM cytotoxicity assay, HCT-116; assay type: cell-based, human; details: read-out: IC50, HCT-116
From the text: as §1

Hep3B = test: High-throughput calcein AM cytotoxicity assay, Hep3B; assay type: cell-based, human; details: Hep 3B cells, read-out: IC50, Hep 3B
From the text: as §1

[1] = tested on: nine human cancer cell lines and a mouse mammary normal epithelial control line; test: High-throughput calcein AM cytotoxicity assay, whole cell line panel; details: for cytotoxicity (in words): cell line panel, 72 h, calcein AM
From the text: In the assay, live cells were distinguished by the presence of a ubiquitous intracellular enzymatic activity which converts the non-fluorescent cell-permeable molecule calcein AM to the intensely fluorescent molecule calcein, which is retained within live cells. The IC50 value for each library member represents at least six replicates of dose-response experiments conducted over five concentrations using two-fold dilutions. […] Standard errors are depicted with error bars. Numerical values and corresponding error values can be found in Table 4. Du145: […]; MCF7: human breast carcinoma; HCT-116: human colon carcinoma, Hep3B: human liver carcinoma; SF-268: human CNS glioblastoma; SK-OV-3: human ovary adenocarcinoma; NCI-H460: human lung carcinoma; A549: human lung adenocarcinoma; NCI/ADR-RES: human breast carcinoma; NmuMG: mouse mammary normal epithelial.
Cell Culture: All cell lines except NmuMG were maintained in RPMI 1640 medium from InVitrogen (Cat No. 11875-085) supplemented with 10% w/v fetal bovine serum (FBS) from ICN (Cat No. 2916154) and penicillin-streptomycin (PS) (100 U/mL and 100 μg/mL) from InVitrogen (Cat No. 15140-122). NmuMG cells were maintained in DMEM medium from InVitrogen (Cat No. 11965-084) supplemented with 10% w/v fetal bovine serum (FBS) from ICN (Cat No. 2916154), 10 μg/ml insulin (InVitrogen Cat No 12585-014), and penicillin-streptomycin (PS) (100 U/mL and 100 μg/mL) from InVitrogen (Cat No. 15140-122). Cells were harvested by trypsinization using 0.25% w/v trypsin and 0.1% w/v EDTA from InVitrogen (Cat No. 15-050-057) and then counted in a hemocytometer in duplicate with better than 10% agreement in field counts. Cells were plated at a cell density of 10,000-15,000 cells/well of each Corning Costar 96-well black tissue culture treated microtiter plate (Fisher Cat No. 07-200-627). Cells were grown for 1 h at 37° C., with 5% CO2 in a humidified incubator to allow cell attachment to occur before compound addition.
Library Member Handling and Preparation for Cytotoxicity Assays: Library members were stored at −20° C. under dessicating conditions before the assay. Library member stocks (100×) were prepared in Corning Costar polypropylene 96-well V-bottom polypropylene microtiter plates (Fisher Cat No. 07-200-695). Five serial 1:2 dilutions were made with anhydrous DMSO at 100× the final concentration used in the assay.
Library Member Addition: The library member-containing plates were diluted 1:10 with complete cell culture media. The 10× stocks (10 μL) were added to the attached cells using a Biomek FX liquid handler (Beckman-Coulter). Library member stocks (10 μL) were added to 90 μL of cells in each plate to insure full mixing of stocks with culture media using a Beckman FX liquid handler with 96-well head.
Determination of Cytotoxicity: Cells were incubated with the library members for 72 h before fluorescence reading. Test plates were removed from the incubator and washed 1× in sterile PBS to remove serum containing calcium esterases. Calcein AM reagent (30 μL, […]) was added and the cells were incubated for 30 min at 37° C. Plates were read for emission using a fluorescein filter (excitation 485 nm, emission 535 nm).
IC50 Calculation: For each library member, at least six dose response experiments were conducted. […] To calculate IC50, percent inhibitions were plotted as a function of log [concentration] and then fit to a four-parameter logistic model that allowed for a variable Hill slope using XLfit 4.1.
Cytotoxicity Assays. All cell lines except NmuMG were maintained in RPMI 1640 medium supplemented with 10% w/v fetal bovine serum (FBS) and penicillin-streptomycin (PS) (100 U/mL and 100 μg/mL).

NmuMG = test: cells; assay type: cell-based, mouse
In short: (§2)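 Cells were attached for 1 h, then exposed to five 2-fold dilutions of compound for 72 h. Viability is read as calcein AM conversion to fluorescent calcein (ex 485/em 535 nm). IC50 comes from a four-parameter logistic fit of ≥6 dose-response replicates; NmuMG was grown in DMEM with insulin, the others in RPMI/10% FBS.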

SK-OV-3 = test: cells; assay type: cell-based, human
In short: as §2

SF-268 = test: cells; assay type: cell-based, human
In short: as §2

NCI/ADR-RES = test: cells; assay type: cell-based, human
In short: as §2

Na+/K+-ATPase = biological target: T1, Na+/K+-ATPase (Homo sapiens, UniProt P05023); test: Non-radioactive rubidium ion uptake assay, HEK-293 cells; assay type: cell-based; details: read-out: Na+/K+-ATPase Inhibition IC50
T1 construct: endogenous in cells; host or cells: HEK-293
Method: Na/K-ATPase Assays. Inhibition of Na^+/K^+-ATPase on HEK-293 cells and CHO-K1 cells by the library hits was determined by Aurora Biomed, Inc. using a high-throughput non-radioactive rubidium ion uptake assay. Experiments were conducted in duplicate using three different concentrations. Within each experiment, percent inhibition values at the three concentrations were expressed as the percent reduction of the maximum absorption signal observed for a 0 nM control. IC50 values were determined using the following formula: IC50=[(50−low %)/(high %−low %)]×(high conc.−low conc.)+low conc.
To assess how these structural modifications impact the ability of library members to inhibit Na^+/K^+-ATPases, a fundamental activity of cardiac glycosides (Paula, S., et al., (2005) Biochemistry 44, 498-510), library hits 5β, 15β, 23β, 27β, 33β, 40β, and digitoxin (1) were submitted to a non-radioactive rubidium uptake assay to gauge Na^+/K^+-ATPase inhibition in both […] human embryonic kidney cells and CHO-K1 hamster ovary cells (Gill, S. et al., (2004) ASSAY and Drug Development Technologies 2, 535-542).

[2] = NmuMG mouse mammary normal epithelial control line, read-out: IC50, NmuMG
[3] = SK-OV-3 cells, read-out: IC50, SK-OV-3
[4] = SF-268 cells, read-out: IC50, SF-268
[5] = NCI/ADR-RES cells, read-out: IC50, NCI/ADR-RES
[6] = Mus musculus, read-out: IC50, NmuMG
[7] = read-out: IC50, SK-OV-3, SK-OV-3 cells
[8] = read-out: IC50, SF-268, SF-268 cells
[9] = read-out: IC50, NCI/ADR-RES, NCI/ADR-RES cells

Compound	pIC50 (Du145; Du145 cells)	pIC50 (MCF7; MCF7 cells)	pIC50 (A549; A549 cells)	pIC50 (NCI-H460; NCI-H460 cells)	pIC50 (HCT-116; HCT-116 cells)	pIC50 (Hep3B)	cytotoxicity (in words) [1]	pIC50 (NmuMG; [2])	pIC50 (SK-OV-3; [3])	pIC50 (SF-268; [4])	pIC50 (NCI/ADR-RES; [5])	other results
CON([C@H]1CC[C@@]2(C)[C@H](CC[C@@H]3[C@@H]2CC[C@]2(C)[C@@H](C4=CC(=O)OC4)CC[C@]32O)C1)[C@@H]1O[C@H](CO)[C@@H](O)[C@H](O)[C@H]1O [4β, D-glucoside]	5.09	5.00	5.54	5.46	5.42	5.62	relatively inactive	5.51	5.22	5.35	5.72	
CON([C@H]1CC[C@@]2(C)[C@H](CC[C@@H]3[C@@H]2CC[C@]2(C)[C@@H](C4=CC(=O)OC4)CC[C@]32O)C1)[C@H]1OC[C@H](O)[C@H](O)[C@H]1O [32β, L-arabinoside]	5.96	5.66	5.77	6.14	6.52	5.92	relatively inactive	6.40	5.52	6.00	6.19	
CON(C1CCC2(C)C(CCC3C2CCC2(C)C(C4=CC(=O)OC4)CCC32O)C1)C1OCC(O)C(O)C1O [15β, D-lyxoside]							significantly more potent than digitoxin against some cell lines					pIC50 (Na+/K+-ATPase): < 3.52; pIC50 (Du145; Homo sapiens, DU-145, Du145 cells): 7.15; pIC50 (MCF7; Homo sapiens, MCF7, MCF7 cells): 6.64; pIC50 (A549; Homo sapiens, A549, A549 cells): 6.85; pIC50 (NCI-H460; Homo sapiens, NCI-H460, NCI-H460 cells): 7.05; pIC50 (HCT-116; Homo sapiens, HCT-116, HCT-116 cells): 6.77; pIC50 (Hep3B; Homo sapiens, Hep3B): 7.05; pIC50 (NmuMG; [6]): 7.16; pIC50 (SK-OV-3; Homo sapiens, SK-OV-3, read-out: IC50, SK-OV-3, SK-OV-3 cells): 6.80; pIC50 (SF-268; Homo sapiens, SF-268, read-out: IC50, SF-268, SF-268 cells): 7.05; pIC50 (NCI/ADR-RES; Homo sapiens, NCI/ADR-RES, read-out: IC50, NCI/ADR-RES, NCI/ADR-RES cells): 7.12
6-deoxy-6-azido-D-mannoside [41β]	5.70	5.48	5.77	5.57	5.22	5.74	not active	< 4.60	5.68	5.60	6.08	
CONC1CC[C@]2(C)C3CC[C@]4(C)[C@@H](C5=CC(=O)OC5)CC[C@]4(O)C3CC[C@@H]2C1 (stereo partly drawn) [3β, R—C(3)aglycon]	5.89	5.74	5.92	6.15	5.92	5.85						pIC50 ([1]; Homo sapiens, read-out: average IC50): ~5.96; pIC50 (NmuMG; [6]): < 4.60; pIC50 (SK-OV-3; [7]): 6.05; pIC50 (SF-268; [8]): 6.00; pIC50 (NCI/ADR-RES; [9]): 6.15
CON(C1CCC2(C)C(CCC3C2CCC2(C)C(C4=CC(=O)OC4)CCC32O)C1)C1OC(COC2OC(CO)C(O)C(O)C2O)C(O)C(O)C1O (stereo not drawn) [35β, melibioside]	4.57	< 4.60	< 4.60	4.54	< 4.60	4.59		< 4.60	4.82	< 4.60	4.80	pIC50 ([1]; all cell lines): < 4.60
CONC1CC[C@]2(C)C3CC[C@]4(C)[C@@H](C5=CC(=O)OC5)CC[C@]4(O)C3CC[C@@H]2C1 (stereo partly drawn) [3α, S—C(3) aglycon]	5.54	4.89	5.08	5.62	5.05							pIC50 ([1]; Homo sapiens): < 4.60; pIC50 (NmuMG; read-out: IC50, NmuMG, NmuMG mouse mammary normal epithelial control line): < 4.60; pIC50 (SK-OV-3; [7]): 5.52; pIC50 (SF-268; [8]): 5.46; pIC50 (NCI/ADR-RES; [9]): 5.29
CON(C1CCC2(C)C(CCC3C2CCC2(C)C(C4=CC(=O)OC4)CCC32O)C1)C1CC(C)(O)C(O)C(C)O1 [30α, L-mycaroside]	< 4.60	< 4.60	< 4.60	< 4.60	< 4.60	< 4.60			< 4.60	< 4.60	< 4.60	pIC50 (NmuMG; NmuMG cells (mouse mammary normal epithelial control line), read-out: IC50): < 4.60
